One compound from PMC8380212, “^18F-labeled tracers targeting fibroblast activation protein” (EJNMMI Radiopharmacy and Chemistry, 2021) can be followed below.

The target of data set [1] is T1, FAP‐transfected HT‐1080‐FAP cells (Homo sapiens, UniProt Q12884).
T1 construct: expressed in transfected cells; host or cells: HT-1080 cells transfected with FAP (HT-1080-FAP)
T1 sequence (Q12884 1-760): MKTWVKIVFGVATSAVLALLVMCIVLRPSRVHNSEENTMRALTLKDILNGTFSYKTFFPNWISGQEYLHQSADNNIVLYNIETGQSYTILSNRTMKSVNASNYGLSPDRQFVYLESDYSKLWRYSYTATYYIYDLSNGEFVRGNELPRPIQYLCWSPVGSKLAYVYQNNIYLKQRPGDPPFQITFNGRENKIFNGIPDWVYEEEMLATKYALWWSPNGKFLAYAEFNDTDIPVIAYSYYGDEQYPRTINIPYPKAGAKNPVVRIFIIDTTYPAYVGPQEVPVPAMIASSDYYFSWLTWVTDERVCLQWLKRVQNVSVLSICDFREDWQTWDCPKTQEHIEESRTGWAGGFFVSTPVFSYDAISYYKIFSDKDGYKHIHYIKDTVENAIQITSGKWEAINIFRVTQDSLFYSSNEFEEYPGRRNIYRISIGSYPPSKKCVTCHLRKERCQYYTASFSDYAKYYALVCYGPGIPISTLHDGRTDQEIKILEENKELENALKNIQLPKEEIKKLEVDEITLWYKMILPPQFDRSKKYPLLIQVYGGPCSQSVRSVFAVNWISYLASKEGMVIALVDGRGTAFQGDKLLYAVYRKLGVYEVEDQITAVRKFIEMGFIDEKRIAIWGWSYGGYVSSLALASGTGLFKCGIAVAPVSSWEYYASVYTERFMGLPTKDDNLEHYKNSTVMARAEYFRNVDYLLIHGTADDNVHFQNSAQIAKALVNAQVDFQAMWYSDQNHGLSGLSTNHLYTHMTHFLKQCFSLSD
Briefly: In vitro binding/uptake on FAP-transfected HT-1080-FAP cells. Format: cell-based. Particulars: HT1080-FAP cells. As to the method: The binding properties of the FAPI derivatives were evaluated using the FAP‐transfected HT‐1080‐FAP and CD26 expressing HEK-CD26 cells. All cells were cultivated in Dulbecco's modified Eagle's medium (DMEM) containing 10% fetal calf serum (FCS) at 37 °C/5% carbon dioxide. Cells were seeded in 6-well plates and cultivated to a final confluence of approximately 80–90% (1.2 to 2.0 × 10^6 cells/well). After washing with FCS free medium, for each well ca. 3 kBq of the radiolabeled compound (10–20 GBq/µmol for [^18F]AlF-labeling) was added to the cells in FCS free medium. On completion of the individual incubation time, cells were washed with PBS and treated with 1.4 mL lysis buffer (0.3 m NaOH, 0.2% SDS) before being transferred to measuring tubes. Competition experiments were performed by co-incubation with the unlabeled precursor for 60 min. Radioactivity was determined in a Wizard Gamma Counter (Perkin Elmer), normalized to 10^6 cells and calculated as percentage of the applied dose (%AD). Each experiment was performed in triplicate.

The next data set relates to HT-1080-FAP xenografts. The data set is described as follows: Small animal PET imaging. Format: in vivo, BALB/c nu/nu mice. The method, then:
Eight-week-old BALB/c nu/nu mice (Charles River) were subcutaneously inoculated with 5 × 10^6 HT-1080-FAP cells. The subcutaneous xenografts were grown at the flanks of the mice. Xenografts were grown to a tumor diameter of 10–15 mm. Mice were anesthetized using isoflurane inhalation. 5–10 MBq of the [^18F]AlF-labeled compounds/ the respective tracer (FAPI-42/52/74/75/76; approx. 0.5 nmol; Am approximately 10–20 GBq/µmol) were injected intravenously for PET imaging. In vivo competition (blocking) experiments with ^68 Ga-FAPI-74 (9 MBq; 18.2 GBq/µmol) were performed by adding 30 nmol of unlabeled FAPI-74 to the injection solution. Images were acquired using a small-animal PET scanner (Inveon, Siemens). Within the first 60 min p.i., a dynamic scan was performed in list mode, followed by a static scan from 120–140 min post injection. Images were reconstructed iteratively using the 3D-OSEM + MAP method (Siemens) and were converted to standardized uptake value (SUV). For the dynamic analysis, 28 frames were reconstructed. Quantification was based on ROI analysis and expressed as SUV.
SUPPLEMENTAL TABLE 1: Tumor-SUVmean values of all mentioned ^18F labeled FAPI-derivatives in HT1080-FAP transplanted nude mice at different time points. The time points 8 min, 22 min and 57 min were selected from the applied 28-frame 3D-OSEM+MAP (Siemens) reconstruction method.

Data set [2] in a line: Determination of logD values (1-octanol / PBS). Format: physicochemical. Particulars: 1-octanol / phosphate buffered saline, pH 7.4; radiolabeled tracer detected by radioactivity in 1-octanol and phosphate buffered saline. As to the method: All experiments for the determination of logD values were performed in triplicate. For the determination by means of radioactivity, around 5 × 10^6 cpm in ca. 1 µL of radioactive stock solutions (water/acetonitrile 1:1) were added to 100 µL phosphate buffered saline (PBS, pH 7.4) and 100 µL of 1-octanol. The mixture was vortexed for 1 min, followed by 5 min of centrifugation for phase separation. A sample of each phase (10 or 50 µL) was measured for radioactivity per volume (Packard Cobra II Autogamma, GMI Inc., USA). In case of FAPI-72 and -73, the reference compounds [^19F]-FAPI-72 and -73 were dissolved in PBS at a concentration of 1 mg/mL. 50 µL of these solutions were each mixed with 50 µL 1-octanol and processed by vortexing and centrifugation as described above. 1 µL of each phase was analyzed by HPLC and the individual content of compound was determined by peak integration. The area under the peaks of the individual runs was used to calculate the log D value.
Fig. 1 Overview of the synthesized precursors discussed in this study. The corresponding log D values were determined by detection of the radiolabeled tracer in 1-octanol and phosphate buffered saline (pH 7). For values labeled with an asterix, the log D was calculated from the relative content of the non-radioactive reference standards in the 1-octanol and the water phase by HPLC analysis and peak integration TEXT PRINTED IN THE PICTURE: FAPI-42: LOG D: -1.63±0.06 | FAPI-52: LOG D: -1.90±0.02 | FAPI-72: LOG D: 1.20±0.01* | FAPI-73: LOG D: 1.13±0.05* | FAPI-74: LOG D: -2.42±0.03 | FAPI-75: LOG D: -3.36±0.12 | FAPI-76: LOG D: -2.86±0.07

The mark [3] stands for this setting: small animal PET, HT-1080-FAP xenograft.

Consider `N#C[C@@H]1CCCN1C(=O)CNC(=O)c1ccnc2ccc(OCCCN3CCN(C(=O)CN4CCN(CC(=O)O)CCN(CC(=O)O)CC4)CC3)cc12` [FAPI-74], for which the “uptake 10 min” value in data set [1] (10 min incubation) was found to be 27.2 ± 0.88 %AD/10^6 cells. In data set [1] (60 min incubation), the “uptake 60 min” value came out at 29.7 ± 0.66 %AD/10^6 cells. Also, the “uptake 120 min” value in data set [1] (120 min incubation) came out at 30.39 ± 2.47 %AD/10^6 cells. Besides, in the data set on HT-1080-FAP xenografts (HT1080-FAP transplanted nude mice, 8 min), the “Tumor Uptake (SUVmean) 8 min” value was determined as 1.58. For the same compound, the “Tumor Uptake (SUVmean) 22 min” value in the data set on HT-1080-FAP xenografts (HT1080-FAP transplanted nude mice, 22 min) was 1.81. Besides, the “Tumor Uptake (SUVmean) 57 min” value in the data set with HT-1080-FAP xenografts (HT1080-FAP transplanted nude mice, 57 min) turned out to be 1.91. The “Tumor Uptake (SUVmean) 120 min” value with HT-1080-FAP xenografts (HT1080-FAP transplanted nude mice, 120 min) is recorded as 1.3. The excretion pathway result with HT-1080-FAP xenografts (small animal PET in tumor bearing mice) is on record as “favorable renal excretion”. Besides, the “tumor uptake SUVmean” value with HT-1080-FAP xenografts (small animal PET screening, discussion) was “approx. 2.0”. In the data set on HT-1080-FAP xenografts (setting [3]), the tumor-SUV max was 2.3 and the tumor-SUV mean turned out to be 1.9. In addition, in data set [2], the logD was -2.42 ± 0.03.
